Data set [1] is classed as physicochemical. The method, then:
An excess amount of drug was added to aqueous solutions containing up to 20% (w/v) cyclodextrin. The solutions were sonicated at 40-50° C. for 45-60 minutes in sealed glass vials, and then allowed to cool to room temperature (22-23° C.). Small amount of solid drug was then added to each vial, the vial resealed and allowed to equilibrate under constant agitation and protected from light for 7 days at room temperature. When the solutions had reached equilibrium, they were filtered through a 0.45 μm membrane filter and analyzed by high pressure liquid chromatography. […] The complexation efficiency (CE) was determined from the slope of phase-solubility diagrams (plots of total solubility of the drug versus total CD concentration in mol/l) where S0 is the intrinsic solubility of the drug:
The mobile phase consisted of acetonitrile, methanol and water (60:20:20), the flow rate was 1 ml/min, the column oven temperature was 80° C. and the detection wavelength was 205 nm.

For data set [2] the following is noted: pure water at room temperature; cited from earlier work.

With `OC[C@H]1O[C@@H]2O[C@H]3[C@H](O)[C@@H](O)[C@@H](O[C@H]4[C@H](O)[C@@H](O)[C@@H](O[C@H]5[C@H](O)[C@@H](O)[C@@H](O[C@H]6[C@H](O)[C@@H](O)[C@@H](O[C@H]7[C@H](O)[C@@H](O)[C@@H](O[C@H]8[C@H](O)[C@@H](O)[C@@H](O[C@H]9[C@H](O)[C@@H](O)[C@@H](O[C@H]1[C@H](O)[C@H]2O)O[C@@H]9CO)O[C@@H]8CO)O[C@@H]7CO)O[C@@H]6CO)O[C@@H]5CO)O[C@@H]4CO)O[C@@H]3CO` [γ-Cyclodextrin], the “CE (complexation efficiency)” value in data set [1] came out at 0.0049.
On to `OC[C@H]1O[C@@H]2O[C@H]3[C@H](O)[C@@H](O)[C@@H](O[C@H]4[C@H](O)[C@@H](O)[C@@H](O[C@H]5[C@H](O)[C@@H](O)[C@@H](O[C@H]6[C@H](O)[C@@H](O)[C@@H](O[C@H]7[C@H](O)[C@@H](O)[C@@H](O[C@H]8[C@H](O)[C@@H](O)[C@@H](O[C@H]1[C@H](O)[C@H]2O)O[C@@H]8CO)O[C@@H]7CO)O[C@@H]6CO)O[C@@H]5CO)O[C@@H]4CO)O[C@@H]3CO` [β-Cyclodextrin], for which the “Solubility of the cyclodextrin in pure water” value in data set [2] was 2 % (w/v). In addition, in data set [1], the “CE (complexation efficiency)” value is 0.030.
For Randomly methylated β-cyclodextrin, in data set [1], the “CE (complexation efficiency)” value is reported as 0.053 and the “Solubility in the presence of 5% (w/v) cyclodextrin” value was 130 µg/mL.
Consider 2-Hydroxypropyl-α-cyclodextrin, for which, in data set [1], the “CE (complexation efficiency)” value came out at 0.031, the “Solubility in the presence of 5% (w/v) cyclodextrin” value stood at 84 µg/mL and the “Solubility in the presence of 15% (w/v) cyclodextrin” value was found to be 460 µg/mL.
For `OC[C@H]1O[C@@H]2O[C@H]3[C@H](O)[C@@H](O)[C@@H](O[C@H]4[C@H](O)[C@@H](O)[C@@H](O[C@H]5[C@H](O)[C@@H](O)[C@@H](O[C@H]6[C@H](O)[C@@H](O)[C@@H](O[C@H]7[C@H](O)[C@@H](O)[C@@H](O[C@H]1[C@H](O)[C@H]2O)O[C@@H]7CO)O[C@@H]6CO)O[C@@H]5CO)O[C@@H]4CO)O[C@@H]3CO` [α-Cyclodextrin], in data set [1], the “CE (complexation efficiency)” value is reported as 0.54 and the “Solubility in the presence of 15% (w/v) cyclodextrin” value was determined as 4200 µg/mL.
Consider 2-Hydroxypropyl-γ-cyclodextrin, for which, in data set [1], the “CE (complexation efficiency)” value was 0.0011.

(Values after patent US20180161449A1 (OCULIS EHF, priority 2015, published 2018).)
